Patent US10975084B2, “KDM5 inhibitors” (Merck Sharp & Dohme Corp., priority 2016, dated 2021)

The molecules below were run against KDM5B (Homo sapiens (Human), UniProt Q9UGL1) (assay: KDM5B TR-FRET Enzyme Activity Assay). Details: LANCE TR-FRET; 5 nM full-length recombinant KDM5B; ten point titration 100000 nM to 5.08 nM.
Assay type: biochemical
Description: KDM5B TR-FRET Enzyme Activity Assay
KDM5B enzymatic activity was determined with the LANCE (Lanthanide Chelate Excite) TR-FRET (Time-resolved fluorescence resonance energy transfer) assay. […] To each well of a white Greiner 1536 Lumitrac 1536 well-plate, 50 nL of compound (100 fold dilution in final assay volume of 5 μL) was dispensed, followed by the addition of 4 μL of 1× assay buffer (50 mM Hepes 7.3, 0.5 mM TCEP, 0.005% Brij-35, 0.02% BSA, 50 μM Na-L-Ascorbate and 2 μM AmFe(II)Sulfate) containing 5 nM of Full-length KDM5B enzyme (recombinant protein from baculovirus-transfected Sf21 cells: full-length KDM5B; MW=176.825 kDa). Following a 30 minutes compound and enzyme incubation in a humidified chamber, each reaction was initiated by the addition of 1 μL 1× assay buffer containing […] biotinylated H3K4Me3 peptide, and 500 nM α-ketoglutarate. The final reaction in each well of 5 μL consists of 5 nM KDM5B, 500 nM biotinylated-peptide, and 500 nM α-ketoglutarate. De-methylation reactions were allowed to proceed for 60 minutes. Reactions were immediately quenched by the addition of 5 uL of 2× Lance Detection Buffer (PerkinElmer) with 0.5 mM EDTA and 2 nM of Eu-anti-H3K4Me1-2 antibody, and 30 nM of Streptavidin-conjugated Dylight 650 detection reagents. After 60 minutes incubation with detection reagents, reaction plates were read on a PerkinElmer EnVision plate reader using standard TR-FRET protocol. Briefly, excitation of donor molecules (Eu-chelate-anti-H3K4Me1-2-antibody) with a laser light source at 337 nm produces energy that can be transferred to Dylight-650 acceptor molecules if this donor:acceptor pair is within close proximity. Fluorescence intensity at both 665 nm (acceptor) and 615 nm (donor) are measured and a TR-FRET ratio calculated for each well (acceptor intensity/donor intensity). IC50 values were determined by 4 parameter robust fit of TR-FRET ratio values vs. (Log 10) compound concentrations.

KDM5B, sequence (Q9UGL1 whole entry): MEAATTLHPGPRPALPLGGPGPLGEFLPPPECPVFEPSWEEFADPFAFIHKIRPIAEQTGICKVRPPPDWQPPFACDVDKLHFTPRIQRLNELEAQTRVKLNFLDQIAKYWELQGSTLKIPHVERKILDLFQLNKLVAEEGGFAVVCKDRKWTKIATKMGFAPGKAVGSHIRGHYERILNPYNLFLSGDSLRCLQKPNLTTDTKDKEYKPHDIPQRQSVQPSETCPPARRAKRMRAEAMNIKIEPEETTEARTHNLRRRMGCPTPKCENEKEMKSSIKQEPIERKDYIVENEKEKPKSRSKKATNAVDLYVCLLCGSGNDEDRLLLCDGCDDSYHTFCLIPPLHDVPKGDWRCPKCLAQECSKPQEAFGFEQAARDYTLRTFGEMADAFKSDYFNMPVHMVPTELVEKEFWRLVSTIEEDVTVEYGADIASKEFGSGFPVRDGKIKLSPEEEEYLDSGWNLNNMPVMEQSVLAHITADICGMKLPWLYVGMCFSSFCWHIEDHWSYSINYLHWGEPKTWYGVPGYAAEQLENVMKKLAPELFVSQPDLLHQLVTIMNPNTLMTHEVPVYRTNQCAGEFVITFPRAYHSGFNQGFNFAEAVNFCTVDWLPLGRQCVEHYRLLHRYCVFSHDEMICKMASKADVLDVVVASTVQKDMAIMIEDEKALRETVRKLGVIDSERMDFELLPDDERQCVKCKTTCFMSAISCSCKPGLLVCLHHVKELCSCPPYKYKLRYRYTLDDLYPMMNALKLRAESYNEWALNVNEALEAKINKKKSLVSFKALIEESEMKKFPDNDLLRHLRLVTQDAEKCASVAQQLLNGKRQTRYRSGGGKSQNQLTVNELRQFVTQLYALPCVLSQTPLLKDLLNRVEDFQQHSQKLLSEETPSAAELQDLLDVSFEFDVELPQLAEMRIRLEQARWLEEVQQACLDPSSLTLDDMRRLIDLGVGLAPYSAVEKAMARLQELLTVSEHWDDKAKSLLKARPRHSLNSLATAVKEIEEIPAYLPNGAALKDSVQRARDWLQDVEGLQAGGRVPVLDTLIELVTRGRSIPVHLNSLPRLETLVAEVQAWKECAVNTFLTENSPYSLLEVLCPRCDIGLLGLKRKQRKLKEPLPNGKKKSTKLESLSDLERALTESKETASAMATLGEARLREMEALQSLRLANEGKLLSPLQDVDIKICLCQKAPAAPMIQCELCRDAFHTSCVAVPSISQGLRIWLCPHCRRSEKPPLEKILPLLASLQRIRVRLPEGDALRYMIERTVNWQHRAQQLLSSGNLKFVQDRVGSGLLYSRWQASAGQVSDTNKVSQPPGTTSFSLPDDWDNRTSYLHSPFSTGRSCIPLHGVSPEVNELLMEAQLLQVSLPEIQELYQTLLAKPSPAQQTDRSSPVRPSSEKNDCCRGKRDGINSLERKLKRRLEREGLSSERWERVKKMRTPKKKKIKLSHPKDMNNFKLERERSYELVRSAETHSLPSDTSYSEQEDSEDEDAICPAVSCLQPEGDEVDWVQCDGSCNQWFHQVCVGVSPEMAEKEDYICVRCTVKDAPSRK

| IC50 [nM] | Structure (SMILES) |
| --- | --- |
| 160 | CC(C)c1c(-c2ccc(F)cc2)[nH]c2ncnn2c1=O [Example 11-11, 5-(4-fluorophenyl)-6-(1-methylethyl)[1,2,4]triazolo[1,5-a]pyrimidin-7(4H)-one] |
| 5.08 | CC(C)Cn1cc(-c2[nH]c3ncnn3c(=O)c2C(C)C)cn1 [Example 11-12, 6-(1-methylethyl)-5-[1-(2-methylpropyl)-1H-pyrazol-4-yl][1,2,4]triazolo[1,5-a]pyrimidin-7(4H)-one] |
| 5.08 | CC(C)c1c(-c2cnn(CC3(F)CCCC3)c2)[nH]c2ncnn2c1=O [Example 11-13, 5-{1-[(1-fluorocyclopentyl)methyl]-1H-pyrazol-4-yl}-6-(1-methylethyl)[1,2,4]triazolo[1,5-a]pyrimidin-7(4H)-one] |
| 5.08 | CC(C)c1c(-c2cnn(CC3CC3)c2)[nH]c2ncnn2c1=O [Example 11-14, 5-[1-(cyclopropylmethyl)-1H-pyrazol-4-yl]-6-(1-methylethyl)[1,2,4]triazolo[1,5-a]pyrimidin-7(4H)-one] |
| 7.5 | CC(C)c1c(-c2cnn(Cc3ccncc3)c2)[nH]c2ncnn2c1=O [Example 11-15, 6-(1-methylethyl)-5-[1-(pyridin-4-ylmethyl)-1H-pyrazol-4-yl][1,2,4]triazolo[1,5-a]pyrimidin-7(4H)-one] |
| 5.73 | COCCn1cc(-c2[nH]c3ncnn3c(=O)c2C(C)C)cn1 [Example 11-16, 5-[1-(2-methoxyethyl)-1H-pyrazol-4-yl]-6-(1-methylethyl)[1,2,4]triazolo[1,5-a]pyrimidin-7(4H)-one] |
| 6.47 | CC(C)c1c(-c2cnn(-c3ccc(F)cc3)c2)[nH]c2ncnn2c1=O [Example 11-17, 5-[1-(4-fluorophenyl)-1H-pyrazol-4-yl]-6-(1-methylethyl)[1,2,4]triazolo[1,5-a]pyrimidin-7(4H)-one] |
| 5.74 | CC(C)c1c(-c2cnn(C3CC3)c2)[nH]c2ncnn2c1=O [Example 11-18, 5-(1-cyclopropyl-1H-pyrazol-4-yl)-6-(1-methylethyl)[1,2,4]triazolo[1,5-a]pyrimidin-7(4H)-one] |
| 6.27 | CCn1cc(-c2[nH]c3ncnn3c(=O)c2C(C)C)cn1 [Example 11-19, 5-(1-ethyl-1H-pyrazol-4-yl)-6-(1-methylethyl)[1,2,4]triazolo[1,5-a]pyrimidin-7(4H)-one] |
| 5.08 | CC(C)c1c(-c2cnn(C(C)C)c2)[nH]c2ncnn2c1=O [Example 11-20, 6-(1-methylethyl)-5-[1-(1-methylethyl)-1H-pyrazol-4-yl][1,2,4]triazolo[1,5-a]pyrimidin-7(4H)-one] |
| 5.08 | CCCn1cc(-c2[nH]c3ncnn3c(=O)c2C(C)C)cn1 [Example 11-21, 6-(1-methylethyl)-5-(1-propyl-1H-pyrazol-4-yl)[1,2,4]triazolo[1,5-a]pyrimidin-7(4H)-one] |
| 808 | C=C(CCC)c1[nH]c2ncnn2c(=O)c1C(C)C [Example 11-22, 6-(1-methylethyl)-5-(1-methylidene-butyl)[1,2,4]triazolo[1,5-a]pyrimidin-7(4H)-one] |
| 27.7 | COC/C=C/c1[nH]c2ncnn2c(=O)c1C(C)C [Example 11-23, 5-[(1E)-3-methoxyprop-1-en-1-yl]-6-(1-methylethyl)[1,2,4]triazolo[1,5-a]pyrimidin-7(4H)-one] |
| 41.2 | CC(C)c1c(-c2ccncc2)[nH]c2ncnn2c1=O [Example 11-24, 6-(1-methylethyl)-5-pyridin-4-yl[1,2,4]triazolo[1,5-a]pyrimidin-7(4H)-one] |
| 47.1 | CC(C)c1c(-c2cccnc2)[nH]c2ncnn2c1=O [Example 11-25, 6-(1-methylethyl)-5-pyridin-3-yl[1,2,4]triazolo[1,5-a]pyrimidin-7(4H)-one] |
| 103 | CC(C)c1c(-c2cncnc2)[nH]c2ncnn2c1=O [Example 11-26, 6-(1-methylethyl)-5-pyrimidin-5-yl[1,2,4]triazolo[1,5-a]pyrimidin-7(4H)-one] |
| 17.9 | CC(C)c1c(-c2ccn(C)c2)[nH]c2ncnn2c1=O [Example 11-27, 6-(1-methylethyl)-5-(1-methyl-1H-pyrrol-3-yl)[1,2,4]triazolo[1,5-a]pyrimidin-7(4H)-one] |
| 155 | Cc1[nH]ncc1-c1[nH]c2ncnn2c(=O)c1C(C)C [Example 11-28, 6-(1-methylethyl)-5-(5-methyl-1H-pyrazol-4-yl)[1,2,4]triazolo[1,5-a]pyrimidin-7(4H)-one] |

| IC50 [nM] | Structure (SMILES) |
| --- | --- |
| 399 | CC(C)c1c(C2=CCCCC2)[nH]c2ncnn2c1=O [Example 11-29, 5-cyclohex-1-en-1-yl-6-(1-methylethyl)[1,2,4]triazolo[1,5-a]pyrimidin-7(4H)-one] |
| 254 | CC(C)c1c(C2=COCCC2)[nH]c2ncnn2c1=O [Example 11-30, 5-(3,4-dihydro-2H-pyran-5-yl)-6-(1-methylethyl)[1,2,4]triazolo[1,5-a]pyrimidin-7(4H)-one] |
| 372 | CC(C)c1c(C2=CCCOC2)[nH]c2ncnn2c1=O [Example 11-31, 5-(5,6-dihydro-2H-pyran-3-yl)-6-(1-methylethyl)[1,2,4]triazolo[1,5-a]pyrimidin-7(4H)-one] |
| 394 | CC(C)c1c(-c2ccccc2F)[nH]c2ncnn2c1=O [Example 11-32, 5-(2-fluorophenyl)-6-(1-methylethyl)[1,2,4]triazolo[1,5-a]pyrimidin-7(4H)-one] |
| 136 | CC(C)c1c(-c2cccc(F)c2)[nH]c2ncnn2c1=O [Example 11-33, 5-(3-fluorophenyl)-6-(1-methylethyl)[1,2,4]triazolo[1,5-a]pyrimidin-7(4H)-one] |
| 11100 | Cc1noc(C)c1-c1[nH]c2ncnn2c(=O)c1C(C)C [Example 11-34, 5-(3,5-dimethylisoxazol-4-yl)-6-(1-methylethyl)[1,2,4]triazolo[1,5-a]pyrimidin-7(4H)-one] |
| 506 | CC(C)c1c(C2=CCCN(C)C2)[nH]c2ncnn2c1=O [Example 11-35, 6-(1-methylethyl)-5-(1-methyl-1,2,5,6-tetrahydropyridin-3-yl)[1,2,4]triazolo[1,5-a]pyrimidin-7(4H)-one] |
| 137 | CC(C)c1c(C2=CCC(O)CC2)[nH]c2ncnn2c1=O (stereo not drawn) [Example 11-36, 5-(4-hydroxycyclohex-1-en-1-yl)-6-(1-methylethyl)[1,2,4]triazolo[1,5-a]pyrimidin-7(4H)-one] |
| 21.6 | CC(C)c1c(-c2cccc(C#N)c2)[nH]c2ncnn2c1=O [Example 11-37, 3-[6-(1-methylethyl)-7-oxo-4,7-dihydro[1,2,4]triazolo[1,5-a]pyrimidin-5-yl]benzonitrile] |
| 21.6 | CC(C)c1c(-c2ccc(C#N)cc2)[nH]c2ncnn2c1=O [Example 11-38, 4-[6-(1-methylethyl)-7-oxo-4,7-dihydro[1,2,4]triazolo[1,5-a]pyrimidin-5-yl]benzonitrile] |
| 5.83 | CC(C)c1c(-c2cnn(Cc3ccccn3)c2)[nH]c2ncnn2c1=O [Example 11-39, 6-(1-methylethyl)-5-[1-(pyridin-2-ylmethyl)-1H-pyrazol-4-yl][1,2,4]triazolo[1,5-a]pyrimidin-7(4H)-one] |
| 5.77 | CC(C)c1c(-c2cnn(Cc3cccnc3)c2)[nH]c2ncnn2c1=O [Example 11-40, 6-(1-methylethyl)-5-[1-(pyridin-3-ylmethyl)-1H-pyrazol-4-yl][1,2,4]triazolo[1,5-a]pyrimidin-7(4H)-one] |
| 11.8 | CC(C)c1c(-c2ccc(N3CCCCC3)cc2)[nH]c2ncnn2c1=O [Example 11-41, 6-(1-methylethyl)-5-(4-piperidin-1-ylphenyl)[1,2,4]triazolo[1,5-a]pyrimidin-7(4H)-one] |
| 74.7 | CC(C)c1c(-c2cccc(N3CCCCC3)c2)[nH]c2ncnn2c1=O [Example 11-42, 6-(1-methylethyl)-5-(3-piperidin-1-ylphenyl)[1,2,4]triazolo[1,5-a]pyrimidin-7(4H)-one] |
| 23.8 | CC(C)c1c(-c2coc(-c3ccc(F)cc3)n2)[nH]c2ncnn2c1=O [Example 11-43, 5-[2-(4-fluorophenyl)-1,3-oxazol-4-yl]-6-(1-methylethyl)[1,2,4]triazolo[1,5-a]pyrimidin-7(4H)-one] |
| 46.3 | CC(C)c1c(-c2cccc(N3CCOCC3)c2)[nH]c2ncnn2c1=O [Example 11-44, 6-(1-methylethyl)-5-(3-morpholin-4-ylphenyl)[1,2,4]triazolo[1,5-a]pyrimidin-7(4H)-one] |
| 17.4 | CCOC(=O)Cc1ccc(-c2[nH]c3ncnn3c(=O)c2C(C)C)cc1 [Example 11-45, ethyl {4-[6-(1-methylethyl)-7-oxo-4,7-dihydro[1,2,4]triazolo[1,5-a]pyrimidin-5-yl]phenyl}acetate] |
| 303 | CC(C)c1c(-c2cccc(Oc3ccccc3)c2)[nH]c2ncnn2c1=O [Example 11-46, 6-(1-methylethyl)-5-(3-phenoxyphenyl)[1,2,4]triazolo[1,5-a]pyrimidin-7(4H)-one] |
